According to patent US10000555B2, “Monomethylvaline compounds having phenylalanine side-chain modification at the C-terminus” (Seattle Genetics, Inc., priority 2005, dated 2018):

Experiments:
Format in all cases: cell-based
[1] = tested on: U251; assay: In vitro cytotoxicity of h1F6-MC-val-cit-PAB-MMAZ conjugates on CD70+ cell line U251; details: U251 glioblastoma, approximately 4 drugs per antibody
Method: (§1) The cytotoxic activity of MMAZ and antibody-drug conjugates is evaluated on the CD70+ positive cell lines, for example, Caki-1, renal cell carcinoma; L428, Hodgkin's disease; U251, glioblastoma. To evaluate the cytotoxicity of compounds, cells can be seeded at approximately 5-10,000 per well in 150 μl of culture medium, then treated with graded doses of compounds in quadruplicates at the initiation of assay. Cytotoxicity assays are usually carried out for 96 hours after addition of test compounds. Fifty μl of resazurin dye may be added to each well during the last 4 to 6 hours of the incubation to assess viable cells at the end of culture. Dye reduction can be determined by fluorescence spectrometry using the excitation and emission wavelengths of 535 nm and 590 nm, respectively. For analysis, the extent of resazurin reduction by the treated cells can be compared to that of the untreated control cells.
(§2) To evaluate the cytotoxicity of conjugates, cells are seeded at approximately 5-10,000 per well in 150 μl of culture medium and then treated with graded doses of conjugates in quadruplicates at the initiation of assay. Cytotoxicity assays are carried out for 96 hours after addition of test compounds. Fifty μl of the resazurin dye is added to each well during the last 4 to 6 hours of the incubation to assess viable cells at the end of culture. Dye reduction is determined by fluorescence spectrometry using the excitation and emission wavelengths of 535 nm and 590 nm, respectively. For analysis, the extent of resazurin reduction by the treated cells is compared to that of the untreated control cells.

[2] = tested on: Caki-1; assay: In vitro cytotoxicity of h1F6-MC-val-cit-PAB-MMAZ conjugates on CD70+ cell line Caki-1; details: Caki-1 renal cell carcinoma, approximately 4 drugs per antibody
Method: as §1, §2

[3] = tested on: L428; assay: In vitro cytotoxicity of h1F6-MC-val-cit-PAB-MMAZ conjugates on CD70+ cell line L428; details: for IC50 (ng/mL) of h1F6-MC-val-cit-PAB-MMAZ conjugates on CD70+ cell lines, L428: L428 Hodgkin's disease, approximately 4 drugs per antibody
Method: as §1, §2

Substance | IC50 (ng/mL) of h1F6-MC-val-cit-PAB-MMAZ conjugates on CD70+ cell lines, U251 [1] | IC50 (ng/mL) of h1F6-MC-val-cit-PAB-MMAZ conjugates on CD70+ cell lines, Caki-1 [2] | IC50 (ng/mL) of h1F6-MC-val-cit-PAB-MMAZ conjugates on CD70+ cell lines, L428 [3] [ng/mL] | Maximum inhibition, L428 ([3]; @ 141 ng/ml) | Maximum inhibition, L428 ([3]; @ 1000 ng/ml) | Maximum inhibition, L428 ([3]; @ 100 ng/ml)
Maleimidocaproyl-Val-Cit-PAB-MeVal-Val-Dil-Dap-2-Chloro-Phe-OH [SP3-a] | 8 ng/mL | 4.4 ng/mL | 8 |  |  | 
Maleimidocaproyl-Val-Cit-PAB-MeVal-Val-Dil-Dap-3-(3-pyridyl)-L-Ala-OH [SP3-h] | 16 ng/mL | 16 ng/mL | 12 |  |  | 
Maleimidocaproyl-Val-Cit-PAB-MeVal-Val-Dil-Dap-Glu(OtBu)-OH [SP3-l] | 43 ng/mL | 51 ng/mL |  | Maximum inhibition = 12% @ 141 ng/ml |  | 
Maleimidocaproyl-Val-Cit-PAB-MeVal-Val-Dil-Dap-L-β-homophe-OH [SP3-d] | 11 ng/mL | 9 ng/mL | 33 |  |  | 
Maleimidocaproyl-Val-Cit-PAB-MeVal-Val-Dil-Dap-Met-OH [SP3-j] | 23 ng/mL | 18 ng/mL | 43 |  |  | 
Maleimidocaproyl-Val-Cit-PAB-MeVal-Val-Dil-Dap-Tic-OH [SP3-c] | 20 ng/mL | 28 ng/mL |  |  | Maximum inhibition = 12% @ 1000 ng/ml | 
Maleimidocaproyl-Val-Cit-PAB-MeVal-Val-Dil-Dap-Trp(Boc)-OH [SP3-k] | 7.5 ng/mL | 6 ng/mL | 11 |  |  | 
Maleimidocaproyl-Val-Cit-PAB-MeVal-Val-Dil-Dap-p-Amino-Phe-OH [SP3-e] | No effect | No effect |  |  |  | Maximum inhibition = 10% @ 100 ng/ml
Maleimidocaproyl-Val-Cit-PAS-MeVal-Val-Dil-Dap-Me-Phe-OH [SP3-b] | 8 ng/mL | 6 ng/mL | 6 |  |  | 
